Patent US4278676A, “Heterocyclic compounds” (H. Lundbeck & Co. A/S, priority 1977, dated 1981)
Read-outs that look alike come from different tables or passages of the source.

Key:
[1] = test system: isoniazide-induced convulsions; test: Antagonism of isoniazide-induced convulsions; assay type: in vivo; settings: Mus musculus, ip; mice, test compound i.p., isoniazide 300 mg/kg s.c.; read-out: MED (minimum effective dose), isoniazide-induced convulsions
Method: (c) Antagonism of isoniazide-induced convulsions (Modification (mice, two times lower concentration of isoniazide) of Mao et al.: Evidence for an involvement of GABA in the mediation of cerebellar c-GMP decrease and the anticonvulsant action of diazepam. Naunyn-Smiedeberg's Arch. Pharmacol. 1975, 289, 369-378).
Conditions and procedure for isoniazide antagonism test:
Isoniazide 300 mg/kg s.c.
Five mice are used for each dose level. Immediately after administration of test substance, isoniazide 300 mg/kg is injected s.c. This dose of isoniazide induces intermittent tonic clonic seizures within 60 minutes. The calculations are performed as on "on line procedure" on the EDP-terminal.

substantia nigra [2] = test: Unilateral injections into substantia nigra in rats; assay type: in vivo, rat
Method: (b) Unilateral injections. 0.1 and 0.5 μg of Ia,Hbr have been injected.

[3] = test system: methylphenidate-induced gnawing; test: Potentiation of methylphenidate-induced gnawing; assay type: in vivo; settings: Mus musculus, read-out: ED50 (the dose which causes potentiation in 50% of the animals), mice
Excerpt: (a) Potentiation of methylphenidate-induced gnawing (Scheel-Kruger et al.: Muscimol differentially facilitates stereotypy but antagonizes motility induced by dopaminergic drugs. A complex GABA-DOPAMINE interaction. Life Sciences, 1978, Vol. 22, 75-84).

substantia nigra [4] = test: Bilateral injections into substantia nigra in rats; assay type: in vivo, rat
Method: (a) Bilateral injections. 0.1, 0.5, and 1.0 μg of Ia,HBr have been injected.

Acute toxicity (mice) = settings: mouse, in vivo
[5] = test system: morphine-induced motility; test: Antagonism of morphine-induced motility; assay type: in vivo; settings: Mus musculus; mice; read-out: MED (minimum effective dose), morphine-induced motility
Excerpt: (b) Antagonism of morphine-induced motility (Christensen et al.: Muscimol antagonizes morphine hypermotility without potentiation of analgesia. European J. Pharmacol., 1978, 48, 459-462).

[6] = test system: lumbar dorsal horn interneurones and Renshaw cells; test: Microelectrophoretic experiments on central neurones of anaesthetized cats; assay type: in vivo; settings: bicuculline methochloride (BMC), cat central neurones
Method: In order to study the interactions of the compound Ia with the central GABA receptors in vivo, the compound Ia was tested in microelectrophoretic experiments. Experiments were performed on lumbar dorsal horn interneurones and Renshaw cells of cats anaesthetized with pentobarbitone sodium. The approximate potency of the depressant actions of the compound was assessed relative to that of GABA on the basis of electrophoretic currents required to produce equal and submaximal inhibitions of the firing of the central neurones. The inhibitory action of Ia on central neurones was antagonized by the specific GABA antagonist bicuculline methochloride (BMC).

[7] = test system: L-glutamate 1-carboxylase; test: Interaction with GABA metabolizing enzyme (carboxylase); assay type: biochemical; settings: concentrations of 10^-3 M
[8] = molecular target: GABA:2-oxo-glutarate aminotransferase (Homo sapiens, UniProt P80404); test: Interaction with GABA metabolizing enzyme (aminotransferase); assay type: biochemical; settings: concentrations of 10^-3 M
GABA uptake system = test: Interaction with GABA uptake system; assay type: biochemical; set-up: dose or concentration left out as unconfirmed
[9] = iv, read-out: Acute Toxicity (Mice) LD50 i.v.
[10] = po, read-out: Acute Toxicity (Mice) LD50 p.o.

Chain of GABA:2-oxo-glutarate aminotransferase (P80404 29-500): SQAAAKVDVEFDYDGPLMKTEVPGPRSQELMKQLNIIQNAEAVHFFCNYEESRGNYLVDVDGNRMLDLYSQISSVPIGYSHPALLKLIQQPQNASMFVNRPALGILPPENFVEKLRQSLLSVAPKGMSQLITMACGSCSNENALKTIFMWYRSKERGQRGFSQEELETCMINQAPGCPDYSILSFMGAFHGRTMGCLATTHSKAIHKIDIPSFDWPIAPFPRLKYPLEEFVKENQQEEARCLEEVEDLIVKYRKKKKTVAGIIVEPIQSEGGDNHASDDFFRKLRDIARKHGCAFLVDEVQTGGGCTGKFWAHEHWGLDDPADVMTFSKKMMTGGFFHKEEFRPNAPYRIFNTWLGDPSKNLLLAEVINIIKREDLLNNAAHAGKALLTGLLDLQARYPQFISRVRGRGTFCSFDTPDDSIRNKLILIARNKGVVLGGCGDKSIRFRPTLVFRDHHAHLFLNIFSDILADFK

SMILES | minimal effective dose [1] | ED50 [3] | LD50 (Acute toxicity (mice); [9]) | LD50 (Acute toxicity (mice); [10]) | minimal effective dose [5] | Reversible antagonism by BMC [6] | further results
Oc1noc2c1CCNC2 [Compound Ia,HBr, 3-Hydroxy-4,5,5,7-tetrahydroisoxazolo[5,4-pyridinium bromide] | 1.3 mg/kg | 3 mg/kg | 80 mg/kg | > 320 mg/kg | 1 mg/kg | – | Behaviour after unilateral injection into substantia nigra (substantia nigra [2]; 0.1 and 0.5 μg injected): strong and prolonged contralateral turning; Behaviour after bilateral injection into substantia nigra (substantia nigra [4]; 0.1, 0.5 and 1.0 μg injected): pronounced stereotypic behaviour
NCCCC(=O)O [GABA, gamma-aminobutyric acid, reference compound] | – | – | – | – | – | yes | –
Oc1noc2c1CCNC2 [Ia, 4,5,6,7-Tetrahydroisoxazolo[5,4-c]pyridin-3-ol zwitterion] | – | – | – | – | – | yes | Potency compared with muscimol, unilateral injection (substantia nigra [2]; substantia nigra): weaker than muscimol; Potency compared with muscimol, bilateral injection (substantia nigra [4]; substantia nigra): weaker than muscimol; Interaction with L-glutamate 1-carboxylase [7]: did not interact; Interaction with GABA:2-oxo-glutarate aminotransferase [8]: did not interact; Interaction with the GABA uptake system (GABA uptake system): did not interact
NCc1cc(=O)[nH]o1 [Muscimol, muscimol] | – | – | 7 mg/kg | 22 mg/kg | – | – | LD50 (Acute toxicity (mice); ip, read-out: Acute Toxicity (Mice) LD50 i.p.): 12 mg/kg
NCc1cc(=O)[nH]o1 [Muscimol,HBr, reference compound] | 0.6 mg/kg | 0.7 mg/kg | – | – | 0.6 mg/kg | – | –
